In one experiment the test system is Hepatitis C virus. As to the kind of experiment: Antiviral activity against Hepatitis C virus genotype 1b isolate Con1 assessed as inhibition of HCV replicon-encoded Renilla luciferase reporter activity after 72 hrs by cell-based replicon assay. It is filed as functional, organism-based, Hepacivirus hominis. To be noted: isolate Con1, 72 h. On the technique in general: In antiviral work, replicon cells carry a viral genome segment that copies itself.

Experiment [1] can be described thus: Inhibition of HCV genotype 1b isolate BK truncated NS5B polymerase lacking C-terminal 21 amino acids assessed as inhibition of 33P-GTP incorporation using Poly(rC) template by scintillation counting analysis. Also on record: species or system Hepatitis C virus (isolate BK).

Structures are written as SMILES. Bounds are passed on as bounds.

Consider `CNC(=O)c1c(-c2ccc(F)cc2)nc2sc(-c3cc(C(=O)NC(C)(C)C(=O)OC)ccc3C)cn12`, for which, in the experiment with Hepatitis C virus, the EC50 is less than 250 nM. Also, the 50% inhibitory concentration (IC50) in experiment [1] was determined as 1000 nM.

Turning to `CNC(=O)c1c(-c2ccc(F)cc2)nc2sc(-c3cc(C(=O)NC(C)(C)c4ccccc4)c(OC)cc3C)cn12`, the EC50 in the experiment with Hepatitis C virus was less than 250 nM. Besides, the IC50 in experiment [1] was less than 250 nM.

Regarding `CNC(=O)c1c(-c2ccc(F)cc2)nc2sc(-c3cc(C(=O)NC(C)(C)c4ncccn4)ccc3C)cn12`, the EC50 in the experiment on Hepatitis C virus was less than 250 nM. Further, the IC50 in experiment [1] came to 1000 nM.

On to `CNC(=O)c1c(-c2ccc(F)cc2)nc2sc(-c3cc(C(=O)N[C@@H](C)c4ccccc4)ccc3C)cn12`, for which the concentration giving a half-maximal response (EC50) in the experiment on Hepatitis C virus is less than 250 nM. For the same molecule, the IC50 in experiment [1] is less than 250 nM.

In the case of `CNC(=O)c1c(-c2ccc(F)cc2)nc2sc(-c3cc(C(=O)NC4(C(C)C)CC4)ccc3C)cn12`, the EC50 in the experiment with Hepatitis C virus was less than 250 nM. For the same molecule, the IC50 in experiment [1] amounted to 1000 nM.

For `CNC(=O)c1c(-c2ccc(F)cc2)nc2sc(-c3cc(C(=O)NC(C)(C)c4ccccc4)ccc3OC)cn12`, the EC50 in the experiment with Hepatitis C virus is less than 250 nM. Besides, the half-maximal inhibitory concentration (IC50) in experiment [1] was less than 250 nM.

For the molecule `CNC(=O)c1c(-c2ccc(F)cc2)nc2sc(-c3cccc(C(=O)NC(C)(C)c4ccccc4)c3)cn12`, the EC50 in the experiment with Hepatitis C virus was less than 250 nM. For the same molecule, in experiment [1], the IC50 is less than 250 nM.

As to `CNC(=O)c1c(-c2ccc(F)cc2)nc2sc(-c3cccc(C(=O)NC4(c5ccccn5)CC4)c3)cn12`, the EC50 in the experiment with Hepatitis C virus was less than 250 nM. The IC50 in experiment [1] is less than 250 nM.

`CNC(=O)c1c(-c2ccc(F)cc2)nc2sc(-c3cc(C(=O)NC(C)(C)c4ccccc4)ccc3C)cn12`: the EC50 in the experiment on Hepatitis C virus is less than 250 nM. Besides, the IC50 in experiment [1] was less than 250 nM.

Consider `CNC(=O)c1c(-c2ccc(F)cc2)nc2sc(-c3cccc(C(=O)NC4(c5ccccc5)CC4)c3)cn12`, for which, in the experiment on Hepatitis C virus, the 50% effective concentration (EC50) is less than 250 nM. Further, the IC50 in experiment [1] was found to be 1000 nM.

The EC50 is the midpoint of the concentration-response curve. As a reminder, the IC50 is the midpoint of a concentration-inhibition curve.
